We go through eight compounds from PubChem BioAssay (NCI).

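These data come from cells grown in 96-well plates and exposed to compound for 48 hours at five concentrations. Here, GI50 denotes the concentration required for 50% inhibition of growth. The concentration for full growth arrest is given as TGI.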 Where only a bound is given, the exact number is not on record here.

Test systems include RPMI-8226 leukemia; T-47D breast; SK-MEL-28 melanoma; SK-OV-3 ovarian; SF-539 CNS; RXF 393 renal; ACHN renal; M14 melanoma; LOX IMVI melanoma; CCRF-CEM leukemia.
Test in all cases: NCI tumour cell line growth inhibition, 48 h

On to `COc1cc2c3c(n(CCN4CCOCC4)c(=O)c2cc1OC)-c1ccccc1C3=O`, for which the GI50 in the experiment on RPMI-8226 leukemia was 81 µM; with T-47D breast it was 27.4 µM; in the experiment on SK-MEL-28 melanoma, above 100 µM; with SK-OV-3 ovarian, 90.4 µM; in the experiment with SF-539 CNS it was above 100 µM; with RXF 393 renal, above 100 µM. Moreover, the GI50 in the experiment with ACHN renal is 35 µM; with M14 melanoma it was above 100 µM; in the experiment on LOX IMVI melanoma, 45.5 µM; with CCRF-CEM leukemia, 19.7 µM. Besides, the TGI in the experiment with RPMI-8226 leukemia was above 100 µM; in the experiment with T-47D breast, 88 µM; in the experiment on SK-MEL-28 melanoma, above 100 µM; in the experiment with SK-OV-3 ovarian, above 100 µM; in the experiment on SF-539 CNS it was above 100 µM; in the experiment on RXF 393 renal it was above 100 µM. The TGI in the experiment on ACHN renal, with M14 melanoma, in the experiment with LOX IMVI melanoma and in the experiment on CCRF-CEM leukemia was above 100 µM each time.

Turning to `Cc1c(Cl)cccc1NC(=O)c1sc2nc3c(cc2c1N)C(=O)CCC3`, the GI50 is 0.234 µM in the experiment on RPMI-8226 leukemia; 0.055 µM with T-47D breast; 0.174 µM with SK-MEL-28 melanoma; 0.0597 µM in the experiment with SK-OV-3 ovarian; 0.0353 µM in the experiment with SF-539 CNS; 0.037 µM in the experiment with RXF 393 renal. Further, the GI50 in the experiment on ACHN renal was 0.0825 µM; in the experiment on M14 melanoma, 0.0655 µM; with LOX IMVI melanoma it was 0.0782 µM; in the experiment on CCRF-CEM leukemia, 0.108 µM. In addition, the TGI with RPMI-8226 leukemia was above 55.4 µM; with T-47D breast it was above 100 µM; with SK-MEL-28 melanoma, above 100 µM; in the experiment on SK-OV-3 ovarian, above 89.7 µM; in the experiment with SF-539 CNS, 0.19 µM; in the experiment with RXF 393 renal, 1.11 µM. Besides, the TGI in the experiment with ACHN renal is above 61.5 µM; in the experiment on LOX IMVI melanoma, above 100 µM; in the experiment with CCRF-CEM leukemia it was above 100 µM.

For the compound `Cc1ccc(N=Nc2c(O)ccc3n[nH]nc23)cc1`, the GI50 in the experiment with RPMI-8226 leukemia is 5.52 µM; in the experiment with T-47D breast it was 10.2 µM; in the experiment with SK-MEL-28 melanoma, 20.6 µM; in the experiment with SK-OV-3 ovarian it was 10.3 µM; with SF-539 CNS, 15.8 µM; in the experiment with RXF 393 renal, 13.2 µM. Also, the GI50 was 11.5 µM in the experiment with ACHN renal, 27.8 µM with M14 melanoma, 12.7 µM in the experiment on LOX IMVI melanoma and 4.13 µM with CCRF-CEM leukemia. In addition, the TGI in the experiment on RPMI-8226 leukemia is 55.4 µM; with T-47D breast, 57.7 µM; in the experiment with SK-MEL-28 melanoma, above 100 µM; in the experiment with SK-OV-3 ovarian it was above 100 µM; in the experiment on SF-539 CNS, above 100 µM; in the experiment with RXF 393 renal, 82.1 µM. Moreover, the TGI in the experiment with ACHN renal is 69.2 µM; with M14 melanoma, above 100 µM; in the experiment with LOX IMVI melanoma, above 100 µM; in the experiment on CCRF-CEM leukemia, 55.6 µM.

Turning to `Cc1nn(Cc2ccccc2)cc1C(=O)Nc1sc2c(c1C(N)=O)CCC(=O)C2`, the GI50 in the experiment on RPMI-8226 leukemia was 1.18 µM; in the experiment with T-47D breast, 1.27 µM; with SK-MEL-28 melanoma it was 2.07 µM; in the experiment on SK-OV-3 ovarian, 2.7 µM; in the experiment with SF-539 CNS, 1.36 µM; in the experiment with RXF 393 renal, 2.35 µM. For the same compound, the GI50 in the experiment with ACHN renal is 1.65 µM; in the experiment with M14 melanoma it was 3.42 µM; in the experiment with LOX IMVI melanoma, 1.78 µM; in the experiment on CCRF-CEM leukemia, 0.789 µM. In addition, the TGI in the experiment with RPMI-8226 leukemia came out at 4.09 µM; with T-47D breast, 3.79 µM; in the experiment with SK-MEL-28 melanoma, 4.29 µM; with SK-OV-3 ovarian, 9.22 µM; with SF-539 CNS, 3.02 µM; in the experiment on RXF 393 renal it was 7.1 µM. The TGI in the experiment on ACHN renal was 3.35 µM; in the experiment on M14 melanoma it was 14.4 µM; with LOX IMVI melanoma, 3.79 µM; in the experiment on CCRF-CEM leukemia, 17.1 µM.

Consider `Cc1cc(N(CCC#N)CCC#N)ccc1/C=C(\NC(=O)/C=C/c1ccccc1)C(=O)Nc1ccc(Cl)cc1`, for which the TGI in the experiment with RPMI-8226 leukemia, in the experiment on T-47D breast, with SK-MEL-28 melanoma, with SK-OV-3 ovarian, in the experiment with SF-539 CNS and in the experiment on RXF 393 renal was above 100 µM each time. Also, the TGI in the experiment on ACHN renal, with M14 melanoma, in the experiment on LOX IMVI melanoma and in the experiment on CCRF-CEM leukemia was above 100 µM each time.

As to `Cc1c(NC(=O)Nc2c(Cl)cccc2Cl)c(=O)n(-c2ccccc2)n1C`, the TGI in the experiment with RPMI-8226 leukemia, in the experiment with T-47D breast, with SK-MEL-28 melanoma, in the experiment with SK-OV-3 ovarian, with SF-539 CNS and with RXF 393 renal was above 100 µM in each case. In addition, the TGI in the experiment with ACHN renal, in the experiment with M14 melanoma, in the experiment with LOX IMVI melanoma and in the experiment on CCRF-CEM leukemia was above 100 µM each time.

On to `Cc1ccnc2c(NC(C)CCCN)cc(O)c(O)c12` (centres undefined), for which the GI50 in the experiment on RPMI-8226 leukemia is 11 µM; with T-47D breast it was 11.6 µM; with SK-MEL-28 melanoma it was 62.5 µM; in the experiment on SK-OV-3 ovarian, 39.3 µM; with SF-539 CNS, 18.5 µM; with RXF 393 renal, 32.3 µM. Further, the GI50 in the experiment on ACHN renal was above 100 µM; in the experiment on M14 melanoma, 29.7 µM; with LOX IMVI melanoma it was 9.69 µM; in the experiment on CCRF-CEM leukemia, 4.62 µM. Moreover, the TGI with RPMI-8226 leukemia is 76.6 µM; with T-47D breast, 43.7 µM; with SK-MEL-28 melanoma, above 100 µM; in the experiment on SK-OV-3 ovarian, above 100 µM; with SF-539 CNS it was 41.9 µM; in the experiment with RXF 393 renal, above 100 µM. Also, the TGI in the experiment on ACHN renal is above 100 µM; in the experiment with M14 melanoma, above 100 µM; in the experiment on LOX IMVI melanoma, 74.9 µM; in the experiment with CCRF-CEM leukemia, 29.3 µM.

Take `COc1c(B(O)O)cccc1-c1nc2ccc3[nH]ncc3c2c2c1CCCC2`: the GI50 in the experiment on RPMI-8226 leukemia is 0.936 µM; in the experiment with T-47D breast, 3.36 µM; in the experiment with SK-MEL-28 melanoma it was 3.42 µM; in the experiment on SK-OV-3 ovarian it was 1.19 µM; with SF-539 CNS, 0.133 µM; in the experiment with RXF 393 renal it was 0.0225 µM. The GI50 was 1.77 µM with ACHN renal, 4.06 µM in the experiment on M14 melanoma, 1.38 µM in the experiment on LOX IMVI melanoma and 0.544 µM with CCRF-CEM leukemia. In addition, the TGI is 7.01 µM in the experiment on RPMI-8226 leukemia; above 37.7 µM in the experiment with T-47D breast; 10.2 µM with SK-MEL-28 melanoma; 10.4 µM with SK-OV-3 ovarian; 2.81 µM in the experiment on SF-539 CNS; 1.25 µM with RXF 393 renal. The TGI with ACHN renal was 16.8 µM; in the experiment on M14 melanoma, 13.2 µM; in the experiment on LOX IMVI melanoma, 6.28 µM; with CCRF-CEM leukemia, above 49.7 µM.
